Data: PMC9698340, “Discovery and SAR Study of Quinoxaline–Arylfuran Derivatives as a New Class of Antitumor Agents” (Pharmaceutics, 2022)

Tests used:
[1] = test system: HeLa cells; assay: Cell cycle analysis, PI flow cytometry; type: cell-based, human; details: 24 h
Protocol: For cell cycle analysis, cells were collected after treatment, washed twice with cold PBS, fixed in 70% ethanol overnight, and stained with PI ([…], Sigma, Shanghai, China), plus 0.2 mg/mL of DNase-free RNase A (Qiagen) for 1 h at 4 °C.

[2] = test system: L02 cells; assay: CCK-8 cytotoxicity against normal hepatocytes L02; type: cell-based; details: Homo sapiens, 48 h, read-out: IC50 ± SD, L02 (human normal hepatocytes)
Protocol: (§1) Human lung carcinoma cell lines A549, human cervical cancer cell lines HeLa, human prostate cancer cell lines PC3, human colorectal carcinoma cell lines HCT116, and human liver cells L02 were purchased from the Chinese Academy of Sciences Shanghai Cell Bank (Shanghai, China). HeLa, A549, PC3, HCT116, and L02 cells were cultured in DMEM Dulbecco’s Modified Eagle Medium (DMEM; Gibco Inc., Gaithersburg, MD, USA). All cultures were provided with 10% fetal bovine serum (FBS; YHSM, Beijing, China), 100 IU/mL penicillin, and 100 μg/mL streptomycin, and cells were incubated at 37 °C in an atmosphere of 5% CO2.
(§2) Cell viability was determined using a CCK-8 kit (Apexbio, Houston, TX, USA). […] Subsequently, absorbance was assessed at 450 nm. Three duplicates were set in each group.
To further evaluate the anticancer effect of QW12, we evaluated its cytotoxicity against four human cancer cell lines: HeLa (Human cervical tumor), PC3 (Human prostate tumor), HCT116 (Human colorectal carcinomas), and A549 (Human lung carcinoma). […] Furthermore, the IC50 values of QW12 against PC3 and HCT116 were similar to those of nifuroxazide.

[3] = test system: HeLa cells; assay: Colony formation (plate-cloning) assay; type: cell-based, human; details: different concentrations, 24 h treatment
Protocol: HeLa cells were digested and seeded directly in 6-well plates (1 × 10^3 cells/well) for the colony-formation assay and cultured in the presence of 10% FBS and 1% penicillin/streptomycin at 37 °C with 5% CO2 for 12 h in confluent cell monolayers. The cells were then treated with QW12 at the indicated concentrations for 24 h. Two weeks later, the medium was removed, and the plates were washed with phosphate-buffered saline (PBS) three times. Cells were fixed with anhydrous ethanol for 30 min and then stained with Giemsa dye solution (Solarbio) for 30 min. The plates were dried with a blower to ensure high-quality images were obtained. Colonies were defined as >50 cells/colony.

[4] = test system: PC3 cells; assay: CCK-8 antiproliferation assay, PC3; type: cell-based; details: Homo sapiens, PC-3, 48 h
Protocol: as §1, §2
(§3) All synthesized quinoxalines compounds were tested for in vitro cytotoxicity against four cancer cell lines (HeLa, PC3, A549, and HCT116). The inhibitory effects of these compounds were evaluated using the CCK-8 assay after treatment with 20 μM of each compound. […] The species of phenyl substituents have a significant effect on the activity. […] By comparison, hydrophobic substitution at the phenyl ring gave derivatives with relatively low potency (QW7–8). In addition, large substituents on the phenyl ring exerted an unfavorable influence on the potency of the compounds (QW8 and QW16).

[5] = test system: HeLa cells; assay: Annexin V-FITC/PI apoptosis assay, flow cytometry; type: cell-based, human; details: control 3.5%
Protocol: For the Annexin V apoptosis assay, cells were collected at the end of the treatment, washed with cold PBS, and stained with the PI/Annexin V-FITC apoptosis kit (4A Biotech Co., Ltd., Beijing, China) following the manufacturer’s instructions. All flow cytometric analyses were performed at the Tianfu Science and Technology Park Molecular and Cell Platform in the West China Hospital.

[6] = test system: phosphorylated AKT (T308) in HeLa cells; assay: Western blot of AKT (T308) phosphorylation; type: cell-based, human; details: total AKT not affected, reversed by NAC
[7] = test system: STAT3 phosphorylation (Y705) in HeLa cells; assay: Western blot of STAT3 Y705 phosphorylation; type: cell-based, human; details: 12 h
Protocol: HeLa cells were seeded in a 6-well plate overnight and treated with QW12 for 24 h. The cells were then harvested and washed with cold PBS and lysed with RIPA buffer supplemented with a protease and phosphatase inhibitor cocktail. Protein concentration was measured using a BCA protein assay kit (Boster Biological Technology Co., Ltd., Wuhan, China). Proteins were separated by 10% SDS-PAGE gel and transferred onto polyvinylidene difluoride (PVDF) membranes (Millipore Co., Billerica, MA, USA). After blocking with 5% mild in PBST for 1 h at room temperature, membranes were incubated with specific primary antibodies against STAT3 (#ET1605-45), Bcl-2 (#ET1603-11), Bax (#ET1603-34), or GAPDH (#HA721136) overnight at 4 °C. The above antibodies were purchased from HUABIO, China. Phospho-STAT3 (Tyr 705) (#9145S) and anti-rabbit IgG, HRP-linked antibody (#7074S) were purchased from Cell Signaling Technology, Inc. America. […]
The activation of STAT3 is tightly regulated during various physiological processes, and the aberrant and persistent activation of STAT3 has been found in various types of cancer. […] Western blot analysis determined whether QW12 could also regulate the STAT3 signaling pathway in HeLa cells. HeLa cells were treated with QW12 for 12 h, and total cell lysates were prepared; Y705-phosphorylated STAT3 proteins were detected using a specific antibody.

[8] = test system: Bcl-2 and Bax in HeLa cells; assay: Western blot of Bcl-2 and Bax; type: cell-based, human; details: 24 h
Protocol: HeLa cells were seeded in a 6-well plate overnight and treated with QW12 for 24 h. The cells were then harvested and washed with cold PBS and lysed with RIPA buffer supplemented with a protease and phosphatase inhibitor cocktail. Protein concentration was measured using a BCA protein assay kit (Boster Biological Technology Co., Ltd., Wuhan, China). Proteins were separated by 10% SDS-PAGE gel and transferred onto polyvinylidene difluoride (PVDF) membranes (Millipore Co., Billerica, MA, USA). After blocking with 5% mild in PBST for 1 h at room temperature, membranes were incubated with specific primary antibodies against STAT3 (#ET1605-45), Bcl-2 (#ET1603-11), Bax (#ET1603-34), or GAPDH (#HA721136) overnight at 4 °C. The above antibodies were purchased from HUABIO, China. Phospho-STAT3 (Tyr 705) (#9145S) and anti-rabbit IgG, HRP-linked antibody (#7074S) were purchased from Cell Signaling Technology, Inc. America. The next day, the membranes were washed with PBST three times and incubated with secondary antibodies 2 h at room temperature. Images were captured and documented with a CCD system (Tanon 5200, Biotanon, Shanghai, China).

[9] = test system: A549 cells; assay: CCK-8 antiproliferation assay, A549; type: cell-based; details: Homo sapiens, 48 h
Protocol: as §1, §2, §3

[10] = test system: HeLa cells; assay: CCK-8 antiproliferation assay, HeLa; type: cell-based; details: Homo sapiens, 48 h
Protocol: as §1, §2, §3

[11] = test system: HCT116 cells; assay: CCK-8 antiproliferation assay, HCT116; type: cell-based; details: Homo sapiens, HCT-116, 48 h
Protocol: as §1, §2, §3

[12] = HeLa cells, 10, 40 μM, vs control

## COc1cc(-c2ccc(/C=N/NC(=O)c3ccc(O)cc3)o2)c(OC)cc1-c1ccc2nccnc2c1 [QW12, (E)-N’-((5-(2,5-dimethoxy-4-(quinoxalin-6-yl)phenyl)furan-2-yl)methylene)-4-hydroxybenzohydrazide]
[1]; 10 μM
  HeLa cell population in the S phase: 23.19%
[1]; 40 μM
  HeLa cell population in the S phase: 51.88%
[1]; 10 and 40 μM
  percentage of cells in phases G0/G1 and G2/M: decreased significantly
[2]
  IC50: > 50 µM
[3]
  effect on proliferation in plate-cloning assay: proliferated at a significantly lower rate than the control
[4]; 20 μM, CCK-8, mean ± SD, read-out: Inhibition Rate (%) at 20 μM, PC3
  inhibition at 20 µM: 52.55 ± 0.47%
[4]; CCK-8, read-out: IC50 ± SD, PC3
  IC50: 12.7 ± 0.57 µM
[5]; 10 μM
  cell apoptosis rate: 13.9%
[5]; 40 μM
  cell apoptosis rate: 34.7%
[6]
  effect on phosphorylated AKT levels (T308): significantly decreased
[7]
  effect on STAT3 Tyr705 phosphorylation: inhibited Tyr705 phosphorylation in a dose-dependent manner
  effect on total STAT3 level: also decreased
[8]; 40 μM, control 1.00
  Bcl-2/Bax expression ratio: 0.66 ± 0.01
[8]; [12]
  Bax expression: increased slightly
  Bcl-2 expression: decreased significantly
[9]; 20 μM, CCK-8, mean ± SD, read-out: Inhibition Rate (%) at 20 μM, A549
  inhibition at 20 µM: 50.8 ± 0.62%
[9]; CCK-8, read-out: IC50 ± SD, A549
  IC50: 20.6 ± 1.22 µM
[10]; HeLa, CCK-8, read-out: IC50 ± SD, HeLa
  IC50: 10.58 ± 0.1 µM
[10]; 20 μM, CCK-8, mean ± SD, read-out: Inhibition Rate (%) at 20 μM, HeLa
  inhibition at 20 µM: 76.35 ± 0.11%
[11]; 20 μM, CCK-8, mean ± SD, read-out: Inhibition Rate (%) at 20 μM, HCT116
  inhibition at 20 µM: 65.43 ± 0.27%
[11]; CCK-8, read-out: IC50 ± SD, HCT116
  IC50: 12.2 ± 0.25 µM
